Photoluminescence quantum yield data for 37 compounds are collected here from the Deep4Chem optical property database.

This series can be described thus: photoluminescence quantum yield (fraction); solvent given as SMILES.

Consider `COCCOCCOCCOc1cc(C=O)c(OCCOCCOCCOC)cc1C=O`, for which the photoluminescence quantum yield by setting is: (in CC(C)(C)O) 0.12; (in CC(C)CO) 0.12; (in CC(C)O) 0.11; (in CCCCO) 0.13; (in CCCO) 0.16; (in CCO) 0.19. In addition, the photoluminescence quantum yield (in CN(C)C=O) was determined as 0.04; the photoluminescence quantum yield (in CNC=O) is 0.08; the photoluminescence quantum yield (in CO) came out at 0.23; the photoluminescence quantum yield (in NC=O) was determined as 0.31; the photoluminescence quantum yield (in O) was determined as 0.54.

For the setting “in CCCCCC”, `CC(C)[Si](C#Cc1c2nc3c(nc2c(C#C[Si](C(C)C)(C(C)C)C(C)C)c2nc4ccccc4nc12)C1c2ccccc2C3c2ccccc21)(C(C)C)C(C)C` came in with a photoluminescence quantum yield of 0.21.

In turn, `CCCCN1C(=O)c2cc(Br)c3c4c(Br)cc5c6c(cc(Br)c(c7c(Br)cc(c2c37)C1=O)c64)C(=O)N(CCCC)C5=O` yielded a photoluminescence quantum yield (in ClC(Cl)Cl) of 0.31.

As for `CCCCCCCCCCCCn1cccc1/C=C/c1ccc(/C=C/c2cccn2CCCCCCCCCCCC)cc1`, the photoluminescence quantum yield (in Cc1ccccc1) worked out at 0.32.

The compound `COc1ccc(-c2nc3c(ccc4ccccc43)oc2=O)cc1` registered a photoluminescence quantum yield (in c1ccccc1) of 0.57.

Consider `C(=C\c1ccccn1)/c1ccc(N(c2ccc(/C=C/c3ccccn3)cc2)c2ccc(-c3nc4ccccc4nc3-c3ccc(N(c4ccc(/C=C/c5ccccn5)cc4)c4ccc(/C=C/c5ccccn5)cc4)cc3)cc2)cc1`, for which the photoluminescence quantum yield (in C1CCOC1) was 0.55.

On to `Nc1ccc2c3cccc4cccc(c5cccc1c52)c43`, for which the photoluminescence quantum yield is, setting by setting: (in C1CCCCC1) 0.55; (in C1CCOC1) 0.58; (in C1COCCO1) 0.28; (in CC(C)=O) 0.5; (in CCCCOCCCC) 0.24; (in CCOC(C)=O) 0.2. For the same compound, the photoluminescence quantum yield is, setting by setting: (in CN(C)C=O) 0.56; (in CO) 0.45; (in ClCCl) 0.47.

`Cc1ccc(-c2ccc(/C=C/c3ccc(C#N)cc3)cn2)nc1` returned a photoluminescence quantum yield (in CC#N) of 0.27.

`CCCCCCCCCc1c2ccccc2cc2c1oc1c3oc4c5oc6cc7ccccc7cc6c5c5ccccc5c4c3c3ccccc3c21` came in with a photoluminescence quantum yield (in C1CCOC1) of 0.75.

Take `CCC(C)(C)c1ccc(-c2ccc(-c3ccc(C(C)(C)CC)cc3)cc2)cc1`: the photoluminescence quantum yield (in C1COCCO1) was 0.85.

Turning to `O=C(O)c1ccccc1-c1nc(-c2ccccc2)c2ccccn12`, the photoluminescence quantum yield (in CC#N) came to 0.02.

In the case of `CC1=CC(C)=[N+]2C1=C(c1ccccc1)c1c(C)cc(/C=C/c3ccccc3)n1[B-]2(F)F`, where the note is “in CC#N”, the photoluminescence quantum yield was found to be 0.7.

Turning to `COc1ccc2c(c1)c1cc(OC)ccc1n2-c1ccc2c(c1)-c1cc(-n3c4ccc(OC)cc4c4cc(OC)ccc43)ccc1P2(=O)c1ccccc1`, the photoluminescence quantum yield (in Cc1ccccc1) was 0.79 and the photoluminescence quantum yield (in c1ccc2c(c1)c1ccccc1n2-c1ccc(-c2ccc(-n3c4ccccc4c4ccccc43)cc2)cc1) came out at 0.78.

Compound `N#Cc1cc(C#N)c(-n2c3ccccc3c3cc(-c4ccc5c(c4)c4ccccc4n5-c4cc(-n5c6ccccc6c6ccccc65)c(C#N)cc4C#N)ccc32)cc1-n1c2ccccc2c2ccccc21` had a photoluminescence quantum yield (in O=P(c1ccccc1)(c1ccccc1)c1ccccc1Oc1ccccc1P(=O)(c1ccccc1)c1ccccc1) of 0.87.

Turning to `F[B-]1(F)OC(/C=C/c2ccccc2)=CC(c2ccccc2)=[O+]1`, the photoluminescence quantum yield (in ClCCl) was 0.02.

For `Cc1cc2cc(C)c3c4ccccc4[nH]c3c2s1`, under “in ClCCl”, the photoluminescence quantum yield amounted to 0.047.

As for `CC(C)(C)c1ccc(-c2sc3c(-c4ccc(C(C)(C)C)cc4)c4n(c3c2-c2ccc(C(C)(C)C)cc2)[B-](F)(F)[N+]2=Cc3c(-c5ccc(C(C)(C)C)cc5)c5sc(-c6ccc(C(C)(C)C)cc6)c(-c6ccc(C(C)(C)C)cc6)c5n3[B-](F)(F)[N+]2=C4)cc1`, the photoluminescence quantum yield is 0.49 (in CC#N); 0.64 (in CCCCCC); 0.45 (in CN(C)C=O); 0.59 (in Cc1ccccc1); 0.6 (in ClCCl).

Regarding `CCN(CC)c1ccc2cc(/C=C/c3cccc[n+]3CCCS(=O)(=O)[O-])c(=O)oc2c1`, the photoluminescence quantum yield came to 0.14 (in C1CCOC1); 0.11 (in CC#N); 0.11 (in CC(C)=O); 0.16 (in CS(C)=O); 0.02 (in Cc1ccccc1); 0.03 (in O). The compound further gave a photoluminescence quantum yield (in OCC(O)CO) of 0.19.

Where the note is “in Cc1ccccc1”, `CC(C)(C)c1ccc(-c2nc3ccccc3nc2-c2cc(-c3nc4ccccc4nc3-c3ccc(C(C)(C)C)cc3)cc(-n3c4ccccc4c4ccccc43)c2)cc1` had a photoluminescence quantum yield of 0.35.

The compound `CC(C)c1cccc(C(C)C)c1N1C(=O)c2cccc3c(Oc4ccc(Cl)cc4)ccc(c23)C1=O` showed a photoluminescence quantum yield (in ClCCl) of 0.64.

As to `Oc1ccccc1C1=NC2c3cccc4cccc(c34)C2N1c1ccccc1` (centres undefined), the photoluminescence quantum yield (in Cc1ccccc1) came out at 0.009.

Consider `CCCCCCCCCCc1cc(-c2cc(CCCCCCCCCC)c(-c3cccs3)s2)sc1-c1cccs1`, for which the photoluminescence quantum yield (in CCC(C)C) was 0.16.

Under “in ClC(Cl)Cl”, `CCCCC1(c2ccc(OC)cc2)Nc2ccccc2N=C1c1ccc(OC)cc1` (centres undefined) showed a photoluminescence quantum yield of 0.52.

Where the note is “in CO”, `CC1(C)C(/C=C/C2=C(c3ccc(C(=O)O)cc3)C(=C/C=C3/N(CCCS(=O)(=O)[O-])c4ccc5ccccc5c4C3(C)C)/CCC2)=[N+](CCCS(=O)(=O)[O-])c2ccc3ccccc3c21` came in with a photoluminescence quantum yield of 0.088.

For the compound `F[B-]1(F)Oc2ccccc2-c2c3c(c4c([n+]21)CCc1ccccc1-4)CCc1ccccc1-3`, for the setting “in ClCCl”, the photoluminescence quantum yield was 0.11.

`Clc1ccc2nc3cc4ccccc4cc3c(-c3ccccc3)c2c1` had a photoluminescence quantum yield (in ClCCl) of 0.38.

Under “in C1CCOC1”, `Cc1ccc(-c2ccc(-c3ccc(-c4ccc(-c5ccc(C)cc5)cc4)c(/C(=C(/c4ccccc4)c4cc(-c5ccc(-c6ccc(C)cc6)cc5)ccc4-c4ccc(-c5ccc(C)cc5)cc4)c4ccccc4)c3)cc2)cc1` displayed a photoluminescence quantum yield of 0.3.

The compound `CN(C)c1ccc(-c2cc(-c3ccc(N(C)C)cc3)ncn2)cc1` gave a photoluminescence quantum yield (in ClCCl) of 0.72.

For `CCNc1cc2c(cc1C)C(c1ccccc1C(=O)O)=C1CCCC(/C=C/C3=[N+](C)c4ccc5ccccc5c4C3(C)C)=C1O2`, the photoluminescence quantum yield is, setting by setting: (in CC#N) 0.22; (in CCO) 0.34; (in CO) 0.33; (in ClC(Cl)Cl) 0.48.

The compound `c1ccc(-c2cnc3nn4ccccc4c3n2)cc1` had a photoluminescence quantum yield (in C1CCOC1) of 0.96.

`CCCCCCCN1C(=CC2=C([O-])C(=CC3=[N+](CCCCCCC)c4ccccc4C3(C)C)C2=C(C#N)C#N)C(C)(C)c2ccccc21` returned a photoluminescence quantum yield (in C1COCCO1) of 0.19, a photoluminescence quantum yield (in CCO) of 0.13, a photoluminescence quantum yield (in CN(C)C=O) of 0.08 and a photoluminescence quantum yield (in ClC(Cl)Cl) of 0.18.

Under “in ClC(Cl)Cl”, `Clc1ccc(-c2nc(-c3ccccc3)sc2N(c2ccccc2)c2ccccc2)cc1` returned a photoluminescence quantum yield of 0.33.

`c1ccc2[nH]ccc2c1`: the photoluminescence quantum yield (in O) was determined as 0.93.

Consider `C[n+]1ccc(/C=C/c2ccc(N(c3ccccc3)c3ccc(/C=C/c4cc[n+](C)cc4)cc3)cc2)cc1`, for which the photoluminescence quantum yield is, setting by setting: (in ClCCl) 0.64; (in O) 0.08; (in OCC(O)CO) 0.11.

With `Cc1cc(=O)oc2cc3cc(-c4cn(Cc5ccccc5)nn4)ccc3cc12`, under “in CCO”, the photoluminescence quantum yield was 0.02.

`c1ccc(-c2nc(-c3ccccc3)nc(-c3cc(-n4c5ccccc5c5ncccc54)cc(-n4c5ccccc5c5ncccc54)c3)n2)cc1` came in with a photoluminescence quantum yield (in O=P(c1ccccc1)(c1ccccc1)c1ccc2oc3ccc(P(=O)(c4ccccc4)c4ccccc4)cc3c2c1) of 0.21.

With `CC1(C)OB(c2ccc3ccc4cccc5ccc2c3c45)OC1(C)C`, the photoluminescence quantum yield (in Cc1ccccc1) is 0.81.
